In US8293803B2, “Retinoid compounds and their use” (Reinnervate Limited, priority 2006, dated 2012):
Each block holds one compound with its values, some of them ahead of it.

Legend:
[1] = Stability in D6-DMSO, 3 days dark under air versus fluorescent light (1H NMR); format: physicochemical
Description: FIG. 6 ^1H NMR (500 MHz) spectrum (d 5.40-7.80) of ATRA in D6-DMSO in a glass NMR tube after 3 days in the dark under air (top), versus 3 days exposure to fluorescent light (bottom).
FIG. 7 ^1H NMR (500 MHz) spectrum (d 7.20-8.10) of EC23 (10a(i) (R′═H)) in D6-DMSO in a glass NMR tube after 3 days in the dark under air (top), versus 3 days exposure to fluorescent light (bottom).
In order to study the relative stability of certain synthetic retinoids versus the natural systems, solutions of each were exposed to different environmental conditions and then studied by NMR.

[2] = system: human pluripotent TERA2.cl.SP12 embryonal carcinoma stem cells; test: Flow cytometry of cell surface antigen expression on human pluripotent stem cells; format: cell-based; conditions: 14 day test period; comparable to non-isomerised ATRA
Experimental: FIG. 8 Flow cytometric analysis of cell surface antigen expression for markers of stem cells (ssea-3, tra-1-60) and differentiated derivatives (vinis-53, a2b5) when cultures of human pluripotent embryonal carcinoma stem cells (TERA2.SP12) exposed to either 10 μM ATRA or 10 μM EC23 (10a(i) (R′═H)).
FIG. 9 Flow cytometric analysis of cell surface antigen expression on human pluripotent TERA2.cl.SP12 embryonal carcinoma stem cells (undiff) and their differentiated derivatives after 7 days exposure to either ATRA; 3Me-CEBX (12); 3Me-EC19 (10b(ii) R′═H); 3Me-EC23 (10b(i) (R′═H)); 4Me-TTN (6b(i)(R′═H)); all used at 1 μM. DMSO was used as a vehicle control.
(§1) The biological activity of compounds 6, 10, 11, 12 and 13 were determined by exposing these molecules at various concentrations to different mammalian stem cell systems, namely (1) human pluripotent stem cells; and (2) rat adult neuroprogenitor cells.
Tissue development by human pluripotent stem cells closely resembles that which occurs during normal embryogenesis in utero and this cell system is a proven and accepted model of cell differentiation (Przyborski et al, Stem Cells Dev., 2004, 13:400-408).
The expression of cell surface antigens that are known to change as these stem cells commit to differentiate, was assessed by flow cytometry.
Flow cytometry was also used to assay for the effect(s) of compounds 6, 10 and (FIGS. 8 and 9).

[3] = system: human pluripotent stem cells; test: Differentiation of human pluripotent stem cells, morphology and immunocytochemistry / immunofluorescent microscopy; format: cell-based; conditions: for formation of neurons: confirmed by immunocytochemistry
Experimental: as §1
Tissue development by human pluripotent stem cells closely resembles that which occurs during normal embryogenesis in utero and this cell system is a proven and accepted model of cell differentiation (Przyborski et al, Stem Cells Dev., 2004, 13:400-408). […]

[4] = system: neuroprogenitor cells derived from the adult rat hippocampus; test: Differentiation of adult neuroprogenitor cells; format: cell-based; conditions: adult rat hippocampal neuroprogenitor cells; β-tubulin-III staining
Experimental: as §1
The biological activity of the synthetic retinoid EC23 (10a(i)) was also evaluated by exposing it to neuroprogenitor cells derived from the adult rat hippocampus. […] Immunocytochemical staining for the marker β-tubulin-III was used to confirm neuronal identity (data not shown).

TERA2.cl.SP12 cells = test: Proliferation and cytotoxicity in TERA2.cl.SP12 cultures; format: cell-based, human
[5] = Stability at room temperature for 1 week (HNMR); format: physicochemical
Experimental: (§2) In order to test the sensitivity of the natural retinoids, 10 mM samples in either DMSO or deuterochloroform were exposed to either 37° C., laboratory light (approximately 500 lux), white light (approximately 1250 lux) or UV light. Upon isomerisation HNMR spectra of samples were taken and compared to HNMR spectra of pure samples. The % peak intensities from the HNMR spectra were used to quantify levels of the different retinoic acids and any other compounds that may be present.
Samples of ATRA and 13CRA, were left at room temperature for 1 week. The degraded solution of 13CRA contained around 78% 13CRA. […] All of the above experiments highlight retinoic acids inherent instability, not only in light, but also at 37° C. and even at room temperature.

[6] = Photoisomerisation under UV light (HNMR); format: physicochemical; conditions: over 12 hours
Experimental: as §2
(§3) The sensitivity of retinoic acids to light was tested by placing samples of ATRA, 9CRA and 13CRA in one of three lighting conditions for varying lengths of time. Samples were exposed to either normal laboratory light conditions, white light or UV light. HNMR spectra were then compared to those of pure samples.
FIGS. 4 and 5 show the relative ratios of the natural retinoic acids found in samples of ATRA and 13CRA isomerised in UV light for 1 hour and 12 hours.
Samples of synthetic retinoids 12(ii), 12(i) and 13 were exposed to 1 hour of laboratory light, 1 hour of white light and 1 hour of UV light. HNMR spectra from samples exposed to lab light and white light were identical to those of pure compounds. […] UV light is emitted at a frequency likely to excite the conjugated double bond region of these synthetic retinoids, resulting in the slight degradation observed. […]

[7] = ATRA in ethanol, white light, 30 minutes; cited from earlier work
[8] = Temperature sensitivity of retinoic acids at 37 °C (HNMR); format: physicochemical; conditions: 37° C. water bath, HNMR peak intensities
Experimental: as §2
Temperature sensitivity was tested by placing solutions of retinoic acids in a 37° C. water bath for varying time lengths. After 1 hour at 37° C. approximate levels of the initial retinoic acid were 85% for a 13CRA sample and 100% for an ATRA sample. This decreased to 73% for a 13CRA sample and 86% for an ATRA sample after 24 hours.

[9] = Photoisomerisation under white light (HNMR); format: physicochemical
Experimental: as §2, §3
Samples of synthetic retinoids 12(ii), 12(i) and 13 were exposed to 1 hour of laboratory light, 1 hour of white light and 1 hour of UV light. HNMR spectra from samples exposed to lab light and white light were identical to those of pure compounds. […] UV light is emitted at a frequency likely to excite the conjugated double bond region of these synthetic retinoids, resulting in the slight degradation observed. 12(ii) and 12(i) were stable under laboratory light and white light. 13 was stable when exposed to all forms of light.

[10] = Photoisomerisation under laboratory light (HNMR); format: physicochemical; conditions: laboratory light (approx. 500 lux), 1 hour and 24 hours
Experimental: as §2, §3
The relative ratios of the natural retinoic acid isomers found in samples of ATRA and 13CRA isomerised in lab light for 1 hour and 24 hours can be seen in FIGS. 1 and 2. The new peaks in HNMR spectra increased in size, and so levels of isomerisation products increased over 24 hours but not to any great extent.
Samples of synthetic retinoids 12(ii), 12(i) and 13 were exposed to 1 hour of laboratory light, 1 hour of white light and 1 hour of UV light. HNMR spectra from samples exposed to lab light and white light were identical to those of pure compounds. […]

stem cells = test: Modulation of cell differentiation (summary statement); format: cell-based; conditions: conditions not given
Experimental: (§4) The application of this technology to systems both with and without a methyl group (e.g. in 6a versus 6b), is important because it allows control of relative rotational orientation of the aryl and vinyl groups which has important implications for the control of conformation as a design principle for developing receptor-selective retinoid analogues.
as §1

[11] = Stability (summary statement); format: physicochemical; conditions: conditions not given
Description: as §4

[12] = 10 μM, 21 days, immunofluorescent microscopy
[13] = 3 days exposure to fluorescent light, DMSO, NMR
[14] = 1 hour, 10 mM in DMSO or deuterochloroform

Structure (SMILES): CC1(C)CCC(C)(C)c2cc(C#Cc3ccc(C(=O)O)cc3)ccc21 [10a(i), 4-(5,5,8,8-Tetramethyl-5,6,7,8-tetrahydro-naphthalen-2-ylethynyl)benzoic acid]
- stability by NMR ([1]; 3 days, dark under air and fluorescent light, DMSO (same conditions as ATRA)): completely stable
- expression of differentiation antigens A2B5 and VINIS-53 [2]: marked increases in expression
- expression of stem cell markers TRA-1-60 and SSEA-3 [2]: suppression
- epithelial plaques (cytokeratin-8) [3, 12]: very few, if any, epithelial plaques
- formation of neurons / neuronal differentiation [3, 12]: consisting primarily of cells undergoing neuronal differentiation
- nestin expression [3, 12]: strong expression for nestin
- behaviour compared with natural ATRA ([3]; human pluripotent stem cells): essentially identical behaviour to natural ATRA
- formation of neurons ([3]; morphology): induced the formation of morphologically identifiable neurons
- differentiation into neurons [4]: differentiate into well-defined neurons

Structure (SMILES): CC1(C)CCC(C)(C)c2cc(C#Cc3cccc(C(=O)O)c3)ccc21 [10a(ii)]
- cells immuno-positive for Tuj-1 and NF200 [3, 12]: only a few cells immuno-positive
- epithelial plaques (cytokeratin-8) [3, 12]: large numbers of cytokertin-8 positive epithelial plaques
- formation of neurons / neuronal differentiation [3, 12]: formation of very few neurons
- nestin expression [3, 12]: nestin staining reduced
- formation of epithelial cells ([3]; morphology): formation of epithelial cells
- formation of neurons ([3]; morphology): Neurons were not identified

Structure (SMILES): CC1(C)CCC(C)(C)c2cc(C#Cc3cccc(C(=O)NO)c3)ccc21 [11a(ii), 3-(5,5,8,8-Tetramethyl-5,6,7,8-tetrahydronaphthalen-2-ylethynyl)benzohydroxamic acid]
- cytotoxicity: time to kill the cells (TERA2.cl.SP12 cells; TERA2.cl.SP12 cells, described as potent cytotoxicity): ≤ 4 days
- effect on proliferation of the cultures (TERA2.cl.SP12 cells; cultures grown in its presence): halted proliferation almost instantly

- content of the initial retinoic acid in the solution [5]: 94%
- degradation in UV light [6]: rapidly degraded
- amount remaining [1, 13]: 37%
- isomerisation and degradation [1, 13]: 63%
- stability by NMR ([1]; 3 days in the dark in air in DMSO): reasonably stable
- approximate level of the initial retinoic acid [8, 14]: ~100%
- approximate level of the initial retinoic acid ([8]; 24 hours): ~86%
- level of ATRA ([9]; white light (approx. 1250 lux), 1 hour): 76%
- level of ATRA ([9]; white light, 6 hours): 43%
- level of ATRA ([9]; white light, 24 hours): 21%
- relative stability in laboratory light [10]: marginally more stable than 13CRA
Structure (SMILES): CC1=C(/C=C/C(C)=C/C=C/C(C)=C/C(=O)O)C(C)(C)CCC1 [ATRA, All-trans-retinoic acid]
- relative concentration of 9, 13-dicis RA in the isomerised ATRA sample [7]: 5%
- relative concentration of 9CRA in the isomerised ATRA sample [7]: 10%
- relative concentration of 11CRA in the isomerised ATRA sample [7]: 10%
- relative concentration of 13CRA in the isomerised ATRA sample [7]: 30%
- relative concentration of ATRA in the isomerised ATRA sample [7]: 25%
- relative concentration of an unidentified compound in the isomerised ATRA sample [7]: 20%
- epithelial plaques (cytokeratin-8) [3, 12]: numerous epithelial plaques
- formation of neurons / neuronal differentiation [3, 12]: induced the formation of neurons
- differentiation into neurons [4]: primarily form neurons

Structure (SMILES): COC(=O)c1cccc(C=C(C)c2ccc3c(c2)C(C)(C)CCC3(C)C)c1 [Compound 6aii, 3-[2-(5,5,8,8-Tetramethyl-5,6,7,8-tetrahydronaphthalen-2-yl)-propenyl]-benzoic acid methyl ester]
- efficacy in modulating cell differentiation (stem cells): efficacious in modulating cell differentiation
- stability [11]: particularly stable

Structure (SMILES): CC(=Cc1ccc(C(=O)O)cc1)c1cc2c(cc1C)C(C)(C)CCC2(C)C [Compound 6bi, 4-[2-(3,5,5,8,8-Pentamethyl-5,6,7,8-tetrahydro-naphthalen-2-yl)propenyl]benzoic acid]
- efficacy in modulating cell differentiation (stem cells): efficacious in modulating cell differentiation
- stability [11]: particularly stable

Structure (SMILES): CC1=C(/C=C/C(C)=C/C=C/C(C)=C\C(=O)O)C(C)(C)CCC1 [Compound 13CRA, 13-cis-retinoic acid]
- content of the initial retinoic acid in the solution [5]: around 78%
- degradation in UV light [6]: rapidly degraded
- approximate level of the initial retinoic acid [8, 14]: ~85%
- approximate level of the initial retinoic acid ([8]; 24 hours): ~73%
